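Dose response: 5 concentrations. Exposure: 48 h. Format: 96-well plates. Endpoint: linear interpolation; highest concentration if not reached. GI50 = concentration required for 50% inhibition of growth.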 Activity calls are given as the source filed them. Rule as the data show it: active = GI50 up to about 1.1 µM and inactive = higher.
Assays:
Experiment in all cases: inhibition of tumour cell growth, NCI panel, 48 h
ACHN = system: ACHN
CAKI-1 = system: CAKI-1
HCC 2998 = system: HCC 2998
HOP-18 = system: HOP-18
HOP-92 = system: HOP-92
KM12 = system: KM12
OVCAR-4 = system: OVCAR-4
RPMI-8226 = system: RPMI-8226
SK-MEL-2 = system: SK-MEL-2
SK-MEL-5 = system: SK-MEL-5
SNB-19 = system: SNB-19
SNB-75 = system: SNB-75
SW-620 = system: SW-620
U-251 = system: U-251
UACC-257 = system: UACC-257
UO-31 = system: UO-31
MOLT-4 = system: MOLT-4
BT-549 = system: BT-549
DU-145 = system: DU-145
MCF7 = system: MCF7

| SMILES | GI50 (ACHN) | GI50 (CAKI-1) | GI50 (HCC 2998) | GI50 (HOP-18) | GI50 (HOP-92) | GI50 (KM12) | GI50 (OVCAR-4) | GI50 (RPMI-8226) | GI50 (SK-MEL-2) | GI50 (SK-MEL-5) | GI50 (SNB-19) | GI50 (SNB-75) | GI50 (SW-620) | GI50 (U-251) | GI50 (UACC-257) | GI50 (UO-31) | GI50 (MOLT-4) | GI50 (BT-549) | GI50 (DU-145) | GI50 (MCF7) |
| --- | --- | --- | --- | --- | --- | --- | --- | --- | --- | --- | --- | --- | --- | --- | --- | --- | --- | --- | --- | --- |
| C/C(=N/Nc1ccc([N+](=O)[O-])cc1[N+](=O)[O-])C(CC(C(=O)Nc1ccccc1C)/C(C)=N\Nc1ccc([N+](=O)[O-])cc1[N+](=O)[O-])C(=O)Nc1ccccc1C (centres undefined) | 19.7 µM (inactive) | 14.2 µM (inactive) | 21.6 µM (inactive) | 14.4 µM (inactive) | 7.08 µM (inactive) | 15.3 µM (inactive) | 5.74 µM (inactive) | > 35 µM (inactive) | 13.3 µM (inactive) | 17.2 µM (inactive) | 14 µM (inactive) | 10.1 µM (inactive) | 18.8 µM (inactive) | 6.12 µM (inactive) | 14.4 µM (inactive) | 11.5 µM (inactive) | – | – | – | – |
| O=C(COC(=O)c1cccc2c(=O)c3ccccc3[nH]c12)Nc1ccc(Cl)cc1 | 32.8 µM (inactive) | > 100 µM (inactive) | > 100 µM (inactive) | > 100 µM (inactive) | 58.9 µM (inactive) | 28.9 µM (inactive) | 95.9 µM (inactive) | – | – | 44.2 µM (inactive) | 35 µM (inactive) | 24.3 µM (inactive) | 85.5 µM (inactive) | 24.9 µM (inactive) | > 100 µM (inactive) | 9.64 µM (inactive) | 26.3 µM (inactive) | – | – | – |
| CSc1ccc(/C=C2\N=C(c3ccccc3)N(c3nc4ccc(Sc5ccccc5)cc4[nH]3)C2=O)cc1 | 30.8 µM (inactive) | 21.5 µM (inactive) | 16.7 µM (inactive) | – | 33.6 µM (inactive) | 15.3 µM (inactive) | 30.9 µM (inactive) | 20.2 µM (inactive) | 13 µM (inactive) | 13.3 µM (inactive) | 24.9 µM (inactive) | 18.1 µM (inactive) | 17.9 µM (inactive) | 16.7 µM (inactive) | 13.9 µM (inactive) | 18.3 µM (inactive) | 22.3 µM (inactive) | 18.3 µM (inactive) | 27.6 µM (inactive) | 15.1 µM (inactive) |
| Cc1c2ccccc2c(C2C3C(=O)N(c4ccc(Br)cc4)C(=O)C3ON2C(C(N)=O)c2ccccc2)c2ccccc12 (centres undefined) | 4.12 µM (inactive) | 3.67 µM (inactive) | 12.1 µM (inactive) | – | 9.4 µM (inactive) | 4.11 µM (inactive) | 4.94 µM (inactive) | 1.89 µM (inactive) | 5.62 µM (inactive) | 3.1 µM (inactive) | 4.8 µM (inactive) | 5.02 µM (inactive) | 3.98 µM (inactive) | 2.69 µM (inactive) | 7.08 µM (inactive) | 10 µM (inactive) | 4.05 µM (inactive) | 7.29 µM (inactive) | 6.43 µM (inactive) | 4.43 µM (inactive) |
| Cc1nc(/C(=N\n2cnnc2)Nc2ccc(Br)cc2)no1 | > 100 µM (inactive) | > 100 µM (inactive) | > 100 µM (inactive) | – | > 100 µM (inactive) | > 100 µM (inactive) | > 100 µM (inactive) | > 100 µM (inactive) | > 100 µM (inactive) | > 100 µM (inactive) | > 100 µM (inactive) | 66.7 µM (inactive) | > 100 µM (inactive) | > 100 µM (inactive) | > 100 µM (inactive) | > 100 µM (inactive) | > 100 µM (inactive) | > 100 µM (inactive) | > 100 µM (inactive) | > 100 µM (inactive) |
| CCN(CC)Cc1cc(Nc2c3ccccc3nc3c2[nH]c2ccccc23)ccc1O | 0.875 µM (active) | 1.46 µM (inactive) | – | 1.6 µM (inactive) | 1.5 µM (inactive) | 1.36 µM (inactive) | 1.39 µM (inactive) | 1.96 µM (inactive) | 1.34 µM (inactive) | 1.89 µM (inactive) | 1.63 µM (inactive) | 1.59 µM (inactive) | 0.912 µM (active) | 1.17 µM (inactive) | 2.44 µM (inactive) | 1.52 µM (inactive) | 0.508 µM (active) | – | – | – |
| COc1cccc(CCn2c(N)c(-c3cc(Cl)cc(Cl)c3)c3ccc([N+](=O)[O-])cc3c2=O)c1 | 3.26 µM (inactive) | 3.5 µM (inactive) | 3.51 µM (inactive) | – | 2.85 µM (inactive) | 3.47 µM (inactive) | 7.55 µM (inactive) | 0.65 µM (active) | 3.9 µM (inactive) | 2.07 µM (inactive) | 3.21 µM (inactive) | 4.39 µM (inactive) | 4.04 µM (inactive) | 3.63 µM (inactive) | 3.33 µM (inactive) | 2.68 µM (inactive) | 1.88 µM (inactive) | 3.53 µM (inactive) | 2.7 µM (inactive) | 4.62 µM (inactive) |
| COc1ccc(C(=O)C/C(=N/NC(N)=S)C(=O)Nc2ccccc2)cc1 | > 100 µM (inactive) | > 100 µM (inactive) | > 100 µM (inactive) | > 100 µM (inactive) | – | > 100 µM (inactive) | 31.9 µM (inactive) | > 100 µM (inactive) | > 100 µM (inactive) | > 100 µM (inactive) | > 100 µM (inactive) | 99.3 µM (inactive) | > 100 µM (inactive) | > 100 µM (inactive) | > 100 µM (inactive) | > 100 µM (inactive) | > 100 µM (inactive) | – | – | – |
